Active and inactive are the calls of the source. The rule behind the calls is not given here.
Tests used:
RAW264.7 [1] = test: Antiinflammatory activity against mouse RAW264.7 cells assessed as inhibition of LPS-induced NO production preincubated for 3 hrs followed by LPS stimulation and measured after 24 hrs by Griess reagent based assay; type: functional, cell-based
RAW264.7 [2] = test: Antiinflammatory activity against mouse RAW264.7 cells assessed as inhibition of LPS-induced ROS generation at 0.25 to 2 uM preincubated for 3 hrs followed by LPS stimulation and measured after 12 hrs by DCFH-DA probe based flow cytometry; type: functional, cell-based; conditions: dose 0.25-2 µM, time 15.0 hrs
RAW264.7 [3] = test: Antiinflammatory activity against LPS-induced mouse RAW264.7 cells assessed as decrease in Keap1 expression preincubated for 3 hrs followed by LPS stimulation and measured after 24 hrs by Western blot analysis; type: functional, cell-based; conditions: dose 0.25-2 µM, time 27.0 hrs, DDE = dose-dependent effect
[4] = biological target: T1, Nuclear factor erythroid 2-related factor 2 (Mus musculus) (UniProt Q60795); test: Induction of LPS-induced Nrf2 nuclear translocation in mouse RAW264.7 cells at 2 uM preincubated for 3 hrs followed by LPS stimulation and measured after 12 hrs by immunofluorescence staining based confocal laser scanning microscopy; type: cell-based; conditions: time 15.0 hrs
T1 sequence (whole entry): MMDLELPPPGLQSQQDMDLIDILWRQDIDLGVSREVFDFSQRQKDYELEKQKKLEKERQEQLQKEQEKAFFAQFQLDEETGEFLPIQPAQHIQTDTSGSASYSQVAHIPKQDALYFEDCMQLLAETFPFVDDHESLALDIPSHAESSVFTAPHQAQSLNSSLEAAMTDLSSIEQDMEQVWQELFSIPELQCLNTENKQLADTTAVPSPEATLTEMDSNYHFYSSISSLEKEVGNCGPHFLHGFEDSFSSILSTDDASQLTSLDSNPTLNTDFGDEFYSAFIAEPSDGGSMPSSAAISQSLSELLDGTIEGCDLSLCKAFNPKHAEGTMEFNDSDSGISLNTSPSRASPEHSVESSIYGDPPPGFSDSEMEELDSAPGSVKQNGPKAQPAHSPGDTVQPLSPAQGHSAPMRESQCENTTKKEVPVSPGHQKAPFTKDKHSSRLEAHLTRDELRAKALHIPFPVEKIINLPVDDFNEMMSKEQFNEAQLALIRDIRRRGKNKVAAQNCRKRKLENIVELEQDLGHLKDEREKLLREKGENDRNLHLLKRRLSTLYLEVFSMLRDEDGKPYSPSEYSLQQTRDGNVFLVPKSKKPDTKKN

RAW264.7 [5] = test: Antiinflammatory activity against LPS-induced mouse RAW264.7 cells assessed as increase in HO-1 expression preincubated for 3 hrs followed by LPS stimulation and measured after 24 hrs by Western blot analysis; type: functional, cell-based; conditions: dose 0.25-2 µM, time 27.0 hrs, DDE = dose-dependent effect
RAW264.7 [6] = test: Antiinflammatory activity against LPS-induced mouse RAW264.7 cells assessed as increase in Nrf2 expression preincubated for 3 hrs followed by LPS stimulation and measured after 24 hrs by Western blot analysis; type: functional, cell-based; conditions: dose 0.25-2 µM, time 27.0 hrs, DDE = dose-dependent effect
RAW264.7 [7] = test: Antiinflammatory activity against LPS-induced mouse RAW264.7 cells assessed as increase in intrinsic nitric oxide level at 0.5 ug/ml measured after 3 hrs by Griess reagent based assay; type: functional, cell-based; conditions: dose 0.5 µg/ml

- IC50 (RAW264.7 [1]): 0.38 µM
- Activity [4]: Active
Compound: C=C1CC[C@H]2[C@@H](/C=C(\C)C(=O)[C@@]3(O)C[C@H](C)[C@H](O)[C@@H]3[C@H]1OC(=O)CCC(=O)OCCOCCOc1no[n+]([O-])c1S(=O)(=O)c1ccccc1)C2(C)C
- inhibition (RAW264.7 [2]): Active
- Activity (RAW264.7 [3]): Dde
- Activity (RAW264.7 [5]): Dde
- Activity (RAW264.7 [6]): Dde
- Activity (RAW264.7 [7]): Active
